Laboratory results: article PMC4863944, “Inhibition of Oncogenic Transcription Factor REL by the Natural Product Derivative Calafianin Monomer 101 Induces Proliferation Arrest and Apoptosis in Human B-Lymphoma Cell Lines” (Molecules, 2015)

What was measured:
REL (human c-Rel) = target: T1, REL (human c-Rel) (Homo sapiens, UniProt Q04864); test: EMSA of extracts from CM101-treated transfected […] cells; C27S mutant less inhibited; western blot of covalently modified high molecular weight forms; type: cell-based
T1 construct: FLAG-tagged human REL expressed in 293 cells
T1 sequence (Q04864 2-619): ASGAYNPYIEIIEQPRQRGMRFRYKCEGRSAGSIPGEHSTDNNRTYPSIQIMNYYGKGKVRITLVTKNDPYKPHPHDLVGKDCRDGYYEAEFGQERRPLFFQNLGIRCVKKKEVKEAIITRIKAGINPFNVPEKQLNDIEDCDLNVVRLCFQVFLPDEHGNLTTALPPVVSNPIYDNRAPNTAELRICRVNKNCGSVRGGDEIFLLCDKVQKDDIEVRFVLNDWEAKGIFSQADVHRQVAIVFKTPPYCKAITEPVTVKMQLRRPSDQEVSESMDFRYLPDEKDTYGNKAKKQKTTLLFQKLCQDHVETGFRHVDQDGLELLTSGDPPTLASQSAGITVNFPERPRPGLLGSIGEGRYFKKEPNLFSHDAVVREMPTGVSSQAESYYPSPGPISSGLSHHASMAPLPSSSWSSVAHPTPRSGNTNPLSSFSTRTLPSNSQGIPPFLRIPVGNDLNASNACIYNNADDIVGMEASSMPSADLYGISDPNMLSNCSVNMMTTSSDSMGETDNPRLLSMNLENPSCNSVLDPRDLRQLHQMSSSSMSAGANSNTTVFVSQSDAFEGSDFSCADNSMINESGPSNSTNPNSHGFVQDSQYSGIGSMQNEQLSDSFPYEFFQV

p65 (RelA) = target: T2, p65 (RelA) (Homo sapiens, UniProt Q04206); test: EMSA of extracts from CM101-treated transfected […] cells; C38S mutant less inhibited; western blot of covalently modified high molecular weight forms; type: cell-based
T2 construct: FLAG-tagged human p65 expressed in 293 cells
T2 sequence (Q04206 whole entry): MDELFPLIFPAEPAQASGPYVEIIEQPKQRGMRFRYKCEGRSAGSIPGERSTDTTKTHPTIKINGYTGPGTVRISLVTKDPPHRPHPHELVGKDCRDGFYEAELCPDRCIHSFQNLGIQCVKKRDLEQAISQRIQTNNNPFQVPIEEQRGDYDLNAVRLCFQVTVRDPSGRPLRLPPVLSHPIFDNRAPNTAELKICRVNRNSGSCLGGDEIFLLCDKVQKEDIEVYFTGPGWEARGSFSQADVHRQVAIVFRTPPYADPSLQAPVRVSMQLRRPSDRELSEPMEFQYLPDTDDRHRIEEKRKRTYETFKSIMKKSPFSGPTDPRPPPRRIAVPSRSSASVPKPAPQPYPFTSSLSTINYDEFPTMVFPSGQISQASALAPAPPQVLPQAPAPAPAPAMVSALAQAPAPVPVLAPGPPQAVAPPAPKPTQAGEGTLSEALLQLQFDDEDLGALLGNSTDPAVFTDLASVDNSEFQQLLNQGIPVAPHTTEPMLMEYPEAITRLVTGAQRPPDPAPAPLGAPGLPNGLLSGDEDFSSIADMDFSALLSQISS

IC50 (REL (human c-Rel)): ~10 µM | IC50 (p65 (RelA)): ~10 µM
Compound: CCOC(=O)C1=NO[C@@]2(C=C(Br)C(=O)[C@H]3O[C@H]32)C1 (mixture of isomers) [CM101]
